Assay results published in patent publication US7138361B2, “Herbicidal heterocycles” (E. I. du Pont de Nemours and Company, priority 2000, dated 2006).

Assays:
Assay type in all cases: in vivo
[1] = tested on: morning glory (Ipomoea hederacea); assay: Test B preemergence
In short: (§1)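 Preemergence: seeds planted and treated with test chemicals in non-phytotoxic solvent with surfactant; postemergence on plants 2–18 cm (1- to 4-leaf stage). Kept in greenhouse 13–15 days, then visually rated against controls on a 0 (no effect) to 100 (complete control) scale.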

corn (Zea mays) [2] = assay: Test B preemergence
In short: as §1

[3] = tested on: lambsquarters (Chenopodium album); assay: Test B preemergence
In short: as §1

[4] = tested on: cocklebur (Xanthium strumarium); assay: Test B preemergence
In short: as §1

[5] = tested on: crabgrass (Digitaria sanguinalis); assay: Test B preemergence
In short: as §1

[6] = tested on: Surinam grass (Brachiaria decumbens); assay: Test B preemergence
In short: as §1

[7] = tested on: giant foxtail (Setaria faberii); assay: Test B preemergence
In short: as §1

[8] = tested on: barnyardgrass (Echinochloa crus-galli); assay: Test B preemergence
In short: as §1

[9] = tested on: pigweed (Amaranthus retroflexus); assay: Test B preemergence
In short: as §1

rice (Oryza saliva) [10] = assay: Test B preemergence
In short: as §1

[11] = tested on: velvetleaf (Abutilon theophrasti); assay: Test B preemergence
In short: as §1

[12] = tested on: morning glory (Ipomoea hederacea); assay: Test B postemergence; settings: 13 to 15 days
In short: as §1

corn (Zea mays) [13] = assay: Test B postemergence; settings: 13 to 15 days
In short: as §1

[14] = tested on: lambsquarters (Chenopodium album); assay: Test B postemergence; settings: 13 to 15 days
In short: as §1

[15] = tested on: cocklebur (Xanthium strumarium); assay: Test B postemergence; settings: 13 to 15 days
In short: as §1

[16] = tested on: crabgrass (Digitaria sanguinalis); assay: Test B postemergence; settings: 13 to 15 days
In short: as §1

[17] = tested on: Surinam grass (Brachiaria decumbens); assay: Test B postemergence; settings: 13 to 15 days
In short: as §1

[18] = tested on: giant foxtail (Setaria faberii); assay: Test B postemergence; settings: 13 to 15 days
In short: as §1

[19] = tested on: barnyardgrass (Echinochloa crus-galli); assay: Test B postemergence; settings: 13 to 15 days
In short: as §1

[20] = tested on: pigweed (Amaranthus retroflexus); assay: Test B postemergence; settings: 13 to 15 days
In short: as §1

[21] = tested on: blackgrass (Alopecurus myosuroides); assay: Test B postemergence; settings: 13 to 15 days
In short: as §1

[22] = tested on: wheat (Triticum aestivum); assay: Test B postemergence; settings: 13 to 15 days
In short: as §1

[23] = tested on: velvetleaf (Abutilon theophrasti); assay: Test B postemergence; settings: 13 to 15 days
In short: as §1

wild oat (Avena fatua) = assay: Test B postemergence; settings: 13 to 15 days
In short: as §1

[24] = tested on: smallflower flatsedge (Cyperus difformis); assay: Test C flooded paddy test; settings: for Flatsedge plant response rating: Flooded Paddy, scale 0 to 100, 0 no effect, 100 complete control; for Plant response rating, Flatsedge: flooded paddy test, scale 0 to 100 (0 no effect, 100 complete control)
In short: (§2)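 Visually assessed vs untreated controls 12–14 d post-treatment (greenhouse). Flooded paddy plants were at the 2-leaf stage; scale 0 = no effect, 100 = complete control.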

[25] = tested on: barnyardgrass (Echinochloa crus-galli); assay: Test C flooded paddy test; settings: for Barnyardgrass plant response rating: Flooded Paddy, scale 0 to 100, 0 no effect, 100 complete control; for Plant response rating, Barnyardgrass: flooded paddy test, scale 0 to 100 (0 no effect, 100 complete control)
In short: as §2

rice (Oryza saliva) [26] = assay: Test C flooded paddy test; settings: for Rice plant response rating: Flooded Paddy, scale 0 to 100, 0 no effect, 100 complete control; for Plant response rating, Rice: flooded paddy test, scale 0 to 100 (0 no effect, 100 complete control)
In short: as §2

[27] = tested on: duck salad (Heteranthera limosa); assay: Test C flooded paddy test; settings: for Ducksalad plant response rating: Flooded Paddy, scale 0 to 100, 0 no effect, 100 complete control; for Plant response rating, Ducksalad: flooded paddy test, scale 0 to 100 (0 no effect, 100 complete control)
In short: as §2

[28] = Preemergence, Rate 500 g/ha, scale 0 to 100, 0 no effect, 100 complete control
[29] = preemergence, Rate 125 g/ha, scale of 0 to 100 where 0 is no effect and 100 is complete control, 13 to 15 days
[30] = Rate 125 g/ha, scale 0 (no effect) to 100 (complete control)
[31] = Rate 500 g/ha, scale 0 to 100, 0 is no effect, 100 is complete control

Structure (SMILES): Cc1c(Cl)cc(N2CCC(n3ccc(C(C)(C)C)n3)C2=O)cc1Cl (stereo not shown) [Compound 74]
- Plant response rating, Morningglory [1, 28]: 0
- Plant response rating, Morningglory [1, 29]: 0
- Plant response rating, Corn (corn (Zea mays) [2]; [28]): 0
- Plant response rating, Corn (corn (Zea mays) [2]; [29]): 0
- Plant response rating, Lambsquarters [3, 28]: 100
- Plant response rating, Lambsquarters [3, 29]: 100
- Plant response rating, Cocklebur [4, 28]: 0
- Plant response rating, Cocklebur [4, 29]: 0
- Plant response rating, Crabgrass [5, 28]: 70
- Plant response rating, Crabgrass [5, 29]: 20
- Plant response rating, Surinam grass [6, 28]: 20
- Plant response rating, Surinam grass [6, 29]: 0
- Plant response rating, Foxtail, Giant [7, 28]: 60
- Plant response rating, Foxtail, Giant [7, 29]: 0
- Plant response rating, Barnyardgrass [8, 28]: 90
- Plant response rating, Barnyardgrass [8, 29]: 30
- Plant response rating, Pigweed [9, 28]: 90
- Plant response rating, Pigweed [9, 29]: 80
- Plant response rating, Rice (rice (Oryza saliva) [10]; [28]): 0
- Plant response rating, Rice (rice (Oryza saliva) [10]; [29]): 0
- Plant response rating, Velvetleaf [11, 28]: 0
- Plant response rating, Velvetleaf [11, 29]: 0
- Plant response rating, Morningglory [12, 30]: 0
- Plant response rating, Morningglory [12, 31]: 0
- Plant response rating, Corn (corn (Zea mays) [13]; [30]): 0
- Plant response rating, Corn (corn (Zea mays) [13]; [31]): 0
- Plant response rating, Lambsquarters [14, 30]: 0
- Plant response rating, Lambsquarters [14, 31]: 0
- Plant response rating, Cocklebur [15, 30]: 0
- Plant response rating, Cocklebur [15, 31]: 0
- Plant response rating, Crabgrass [16, 30]: 0
- Plant response rating, Crabgrass [16, 31]: 0
- Plant response rating, Surinam grass [17, 30]: 0
- Plant response rating, Surinam grass [17, 31]: 0
- Plant response rating, Foxtail, Giant [18, 30]: 0
- Plant response rating, Foxtail, Giant [18, 31]: 0
- Plant response rating, Barnyardgrass [19, 30]: 0
- Plant response rating, Barnyardgrass [19, 31]: 0
- Plant response rating, Pigweed [20, 30]: 80
- Plant response rating, Pigweed [20, 31]: 90
- Plant response rating, Blackgrass [21, 30]: 0
- Plant response rating, Blackgrass [21, 31]: 0
- Plant response rating, Wheat [22, 30]: 0
- Plant response rating, Wheat [22, 31]: 0
- Plant response rating, Velvetleaf [23, 30]: 0
- Plant response rating, Velvetleaf [23, 31]: 0
- Plant response rating, Wild Oat (wild oat (Avena fatua); [30]): 0
- Plant response rating, Wild Oat (wild oat (Avena fatua); [31]): 0
- Flatsedge plant response rating ([24]; Rate 250 g/ha): 0
- Flatsedge plant response rating ([24]; Rate 500 g/ha): 40
- Plant response rating, Flatsedge ([24]; Rate 62 g/ha): 0
- Plant response rating, Flatsedge ([24]; Rate 125 g/ha): 0
- Barnyardgrass plant response rating ([25]; Rate 250 g/ha): 0
- Barnyardgrass plant response rating ([25]; Rate 500 g/ha): 0
- Plant response rating, Barnyardgrass ([25]; Rate 62 g/ha): 0
- Plant response rating, Barnyardgrass ([25]; Rate 125 g/ha): 0
- Rice plant response rating (rice (Oryza saliva) [26]; Rate 250 g/ha): 0
- Rice plant response rating (rice (Oryza saliva) [26]; Rate 500 g/ha): 0
- Plant response rating, Rice (rice (Oryza saliva) [26]; Rate 62 g/ha): 0
- Plant response rating, Rice (rice (Oryza saliva) [26]; Rate 125 g/ha): 0
- Ducksalad plant response rating ([27]; Rate 250 g/ha): 0
- Ducksalad plant response rating ([27]; Rate 500 g/ha): 0
- Plant response rating, Ducksalad ([27]; Rate 62 g/ha): 0
- Plant response rating, Ducksalad ([27]; Rate 125 g/ha): 0
